Experimental data reported in US20140187556A1, “ANTI-AMYLOID COMPOUNDS AND METHODS” (Treventis Corporation, priority 2011, published 2014).
Read-outs that look alike come from different tables or passages of the source.

Experiments:
Aβ40 = target: T1, Aβ40 (Homo sapiens, UniProt P05067); test: Thioflavin T (ThT) Aβ aggregation assay; assay type: biochemical; conditions: 20 μM Aβ40, 37 degrees C
T1 construct: pre-treated Aβ40 (40 μM in 20 mM Tris, pH 7.4)
In short: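 Aβ40 was HFIP-pretreated to remove preformed aggregates; 20 µM Aβ40 incubated with compound and 4 µM ThT in 20 mM Tris pH 7.4, 150 mM NaCl, 1% DMSO at 37 °C. Fluorescence (ex 450/em 480 nm) read every 15 min after shaking; inhibition judged by attenuated fluorescence rise versus DMSO controls.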

[1] = In vivo blood and brain exposure and brain/plasma ratio in ICR mice; conditions: male ICR mice
Procedure: TRV 1140 was formulated in 3% N-methyl-2-pyrrolidone, 0.5% Cremaphor, 50% olive oil in water. The compound was formulated at a concentration of 2 mg/mL and dosed in a volume of 10 mL/kg to produce a dose of 20 mg/kg. The formulation was an emulsion. Compound was formulated fresh daily. Mice were dosed once daily for three days. Male ICR mice (S.A. Ace Animals; Boyertown, Pa.) were used for this experiment. Animals were group housed and kept on a standard 12 hr light cycle. Food and water were available ad libitum. On the third day mice were dosed with compound. At the designated time after 20 mg/kg dosing (30 min, 2 hrs, 4 hrs), whole blood was collected via the retro-orbital sinus in heparanized tubes and mixed with deionized water at a 1:1 ratio for hemolyzation. Hemolyzed blood was analyzed for levels of test agent. Blood samples were extracted by a standard protocol known in the art. At designated time points, mice were sacrificed. Brains were removed, weighed, and processed. Brains were homogenized and test agent extracted with an acetonitrile homogenization method (1 mL acetonitrile: 1 g brain). Supernatant samples were stored at −80° C. for subsequent analysis of brain levels of test compound. Brain levels of test agent were analyzed by LC/MS/MS.

T1 sequence (P05067 672-711 limits assumed): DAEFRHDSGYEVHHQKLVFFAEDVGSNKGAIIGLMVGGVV

O=[N+]([O-])c1ccc(-c2cccc(C(O)C(F)(F)F)c2)cc1NCc1ccccc1 (centres unmarked) [TRV 1140, 1-(3′-(benzylamino)-4′-nitro-[1,1′-biphenyl]-3-yl)-2,2,2-trifluoroethanol]
IC50 (Aβ40): 3.09 ± 0.21 µM | brain penetrance ([1]; 20 mg/kg): highly brain penetrable | time of maximum concentration (blood and brain) ([1]; 20 mg/kg once daily, third day): 4 h | total drug exposure in blood ([1]; 20 mg/kg once daily, third day, 0-4 hr): 450 ng·h/mL | total drug exposure in brain ([1]; 20 mg/kg once daily, third day, 0-4 hr, mean of two samples): 694 ng·h/mL | Kp ([1]; mouse, brain / plasma (method describes hemolyzed whole blood), 20 mg/kg once daily, third day): 1.54 | Cmax ([1]; mouse, brain, 20 mg/kg once daily, third day, read-out: Maximum concentration (Cmax) in brain): 238 ng/mL | Cmax ([1]; mouse, whole blood, 20 mg/kg once daily, third day, read-out: Maximum concentration (Cmax) in blood): 87.5 ng/mL
